The results in this text go back to ChEMBL document CHEMBL1137884, “Synthesis of ether analogues derived from HUN-7293 and evaluation as inhibitors of VCAM-1 expression” (Bioorg Med Chem Lett, 2004).

Assay [1] concerns HMEC. Nature of the assay: inhibition of TNF-alpha-induced ICAM-1 expression in the human microvascular endothelial cell line HMEC-1. Type of assay: functional, cell-based.
Assay [2] relates to HMEC. Nature of the assay: inhibition of TNF-alpha-induced VCAM-1 expression in the human microvascular endothelial cell line HMEC-1. Type of assay: functional, cell-based.

Each structure is given as a SMILES string. Numbered stars: 1 amine (or outer) side, 2 acyl side, 3 side chain; on linkers, the order of the positions; unused ones are H or OH. Square brackets hold non-standard residues; d marks the D form. Peptide text beside a SMILES is read from it. NMeTrp(1-OMe) = CN[C@@H](Cc1cn(OC)c2ccccc12)C(=O)O; Butanoyl(2R-oxy,4-CN) = N#CCC[C@@H](O)C(=O)O; X1 = CCCC[C@@H](C)C[C@H](N[*:1])C(=O)[*:2]; NMeL = CN[C@@H](CC(C)C)C(=O)O; NMeA = CN[C@@H](C)C(=O)O A value given as a limit tells only on which side of the number the result lay.

What is called IC50 is the concentration needed to halve the response being measured. `CCCC[C@@H](C)C[C@@H]1NC(=O)[C@H](Cc2cn(OC)c3ccccc23)N(C)C(=O)[C@H](CC(C)C)NC(=O)[C@H](CC(C)C)N(C)C(=O)[C@H](C[C@H](C)CCCC)NC(=O)[C@@H](C)OC[C@H](C)N(C)C1=O`: the results for the IC50 in the assay on HMEC [1] and with HMEC [2] were 1.66 µM and 0.015 µM, respectively.
Taken in the same sequence, the figures for `CCCC[C@@H](C)C[C@H]1CN(C)[C@@H](C)C(=O)O[C@H](C)C(=O)N[C@@H](C[C@H](C)CCCC)C(=O)N(C)[C@@H](CC(C)C)C(=O)N[C@@H](CC(C)C)C(=O)N(C)[C@@H](Cc2cn(OC)c3ccccc23)C(=O)N1` were above 30 µM and 0.018 µM.
Take `CCCC[C@@H](C)C[C@H]1CN(C)[C@@H](C)C(=O)N[C@H](C)C(=O)N[C@@H](C[C@H](C)CCCC)C(=O)N(C)[C@@H](CC(C)C)C(=O)N[C@@H](CC(C)C)C(=O)N(C)[C@@H](Cc2cn(OC)c3ccccc23)C(=O)N1`: the IC50 in the assay on HMEC [1] came out at 6.92 µM; in the assay on HMEC [2], 0.092 µM.
Compound `CCCC[C@@H](C)C[C@@H]1NC(=O)[C@H](Cc2cn(OC)c3ccccc23)N(C)C(=O)[C@H](CC(C)C)NC(=O)[C@H](CC(C)C)N(C)C(=O)[C@H](C[C@H](C)CCCC)NC(=O)[C@@H](CCC#N)OC(=O)[C@H](C)N(C)C1=O` (cyclo(L[NMeTrp(1-OMe)][X1][NMeA][Butanoyl(2R-oxy,4-CN)][X1][NMeL])) returned an IC50 in the assay with HMEC [1] of 0.025 µM.
As for `CCCC[C@@H](C)C[C@@H]1NC(=O)[C@H](Cc2cn(OC)c3ccccc23)N(C)C(=O)[C@H](CC(C)C)NC(=O)[C@H](CC(C)C)N(C)C(=O)[C@H](C[C@H](C)CCCC)NC(=O)[C@H](C)OC[C@H](C)N(C)C1=O`, the IC50 in the assay on HMEC [1] is above 30 µM; in the assay with HMEC [2], 0.63 µM.
For `CCCC[C@@H](C)C[C@@H]1NC(=O)[C@H](Cc2cn(OC)c3ccccc23)N(C)C(=O)[C@H](CC(C)C)NC(=O)[C@H](CC(C)C)N(C)C(=O)[C@H](C[C@H](C)CCCC)NC(=O)[C@@H](C)OC(=O)[C@H](C)N(C)C1=O`, in that order: 0.178 µM and 0.002 µM.
`CCCC[C@@H](C)C[C@@H]1NC(=O)[C@H](Cc2cn(OC)c3ccccc23)N(C)C(=O)[C@H](CC(C)C)NC(=O)[C@H](CC(C)C)N(C)C(=O)[C@H](C[C@H](C)CCCC)NC(=O)COC[C@H](C)N(C)C1=O`: in the assay on HMEC [2], the IC50 turned out to be 0.2 µM.
